Results: ChEMBL document CHEMBL1131872, “3-Amidinophenylalanine-based inhibitors of urokinase” (Bioorg Med Chem Lett, 1999)
pKi: −log10 of the molar value.

How the values were obtained:
[1] = molecular target: T1, Urokinase-type plasminogen activator (Homo sapiens, UniProt P00749); experiment: Tested for inhibition of plasminogen activator urokinase (microPa)
Plasminogen [2] = molecular target: T2, Plasminogen (Homo sapiens, UniProt P00747); experiment: Tested for inhibition of plasmin
Serine protease 1 [3] = molecular target: T3, Serine protease 1 (Bos taurus, UniProt P00760); experiment: Tested for inhibition of trypsin
T3 sequence (P00760 whole entry): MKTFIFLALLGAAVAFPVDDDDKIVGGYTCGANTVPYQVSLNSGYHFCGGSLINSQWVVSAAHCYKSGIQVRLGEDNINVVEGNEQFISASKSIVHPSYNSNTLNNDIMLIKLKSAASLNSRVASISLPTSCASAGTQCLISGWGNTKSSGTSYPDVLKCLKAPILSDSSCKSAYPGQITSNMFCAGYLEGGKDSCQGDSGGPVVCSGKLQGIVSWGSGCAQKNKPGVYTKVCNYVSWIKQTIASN

[4] = molecular target: T1, Urokinase-type plasminogen activator; experiment: Compound was tested for inhibition of plasminogen activator urokinase (microPa).
Coagulation factor X = Coagulation factor X (Bos taurus, UniProt P00743); experiment: Compound was tested for inhibition of Coagulation factor X
[5] = molecular target: T1, Urokinase-type plasminogen activator; experiment: Compound was tested for inhibition of plasminogen activator urokinase (microPa)
Plasma kallikrein = Plasma kallikrein (Homo sapiens, UniProt P03952); experiment: Compound was tested for inhibition of plasma kallikrein
Plasminogen [6] = molecular target: T2, Plasminogen; experiment: Compound was tested for inhibition of plasmin
[7] = Compound was tested for inhibition of protein Ca
Prothrombin = Prothrombin (Homo sapiens, UniProt P00734); experiment: Compound was tested for inhibition of thrombin; parameters: species or system Bos taurus
Serine protease 1 [8] = molecular target: T3, Serine protease 1; experiment: Compound was tested for inhibition of trypsin
[9] = Compound was tested for inhibition of sc-tissue plasminogen activator

T2 sequence (P00747 97-580 limits assumed): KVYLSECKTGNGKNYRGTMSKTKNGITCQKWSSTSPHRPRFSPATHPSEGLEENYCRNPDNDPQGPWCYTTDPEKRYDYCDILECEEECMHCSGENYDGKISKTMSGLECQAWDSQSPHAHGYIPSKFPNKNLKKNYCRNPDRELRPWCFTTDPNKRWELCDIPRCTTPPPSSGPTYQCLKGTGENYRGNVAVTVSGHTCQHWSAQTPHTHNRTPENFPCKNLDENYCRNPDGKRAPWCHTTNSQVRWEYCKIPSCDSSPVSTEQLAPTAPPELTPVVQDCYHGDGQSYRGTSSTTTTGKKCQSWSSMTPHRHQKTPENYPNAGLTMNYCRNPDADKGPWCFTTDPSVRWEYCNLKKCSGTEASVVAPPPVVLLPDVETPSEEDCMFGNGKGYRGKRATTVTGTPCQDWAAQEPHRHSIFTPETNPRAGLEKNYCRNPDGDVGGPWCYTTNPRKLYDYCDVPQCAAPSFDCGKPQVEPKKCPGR
T2 sequence (P00747 581-810 limits assumed): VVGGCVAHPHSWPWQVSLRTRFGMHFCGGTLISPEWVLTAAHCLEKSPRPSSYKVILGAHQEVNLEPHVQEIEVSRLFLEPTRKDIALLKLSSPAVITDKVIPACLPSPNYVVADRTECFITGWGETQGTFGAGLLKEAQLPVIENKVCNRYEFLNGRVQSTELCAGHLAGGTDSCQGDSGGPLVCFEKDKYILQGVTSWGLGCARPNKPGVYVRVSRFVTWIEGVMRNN
Chain of Plasma kallikrein (P03952 20-390 limits assumed): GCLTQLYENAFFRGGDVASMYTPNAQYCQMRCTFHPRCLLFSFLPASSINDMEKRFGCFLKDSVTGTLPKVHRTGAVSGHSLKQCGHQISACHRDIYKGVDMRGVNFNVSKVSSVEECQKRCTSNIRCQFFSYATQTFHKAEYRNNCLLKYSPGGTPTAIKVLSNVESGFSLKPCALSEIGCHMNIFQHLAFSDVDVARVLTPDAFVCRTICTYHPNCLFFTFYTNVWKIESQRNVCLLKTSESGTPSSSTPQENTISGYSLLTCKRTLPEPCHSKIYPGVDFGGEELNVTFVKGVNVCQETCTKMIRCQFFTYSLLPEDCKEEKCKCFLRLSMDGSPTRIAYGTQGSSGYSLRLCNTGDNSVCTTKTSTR
Chain of Plasma kallikrein (P03952 391-638 limits assumed): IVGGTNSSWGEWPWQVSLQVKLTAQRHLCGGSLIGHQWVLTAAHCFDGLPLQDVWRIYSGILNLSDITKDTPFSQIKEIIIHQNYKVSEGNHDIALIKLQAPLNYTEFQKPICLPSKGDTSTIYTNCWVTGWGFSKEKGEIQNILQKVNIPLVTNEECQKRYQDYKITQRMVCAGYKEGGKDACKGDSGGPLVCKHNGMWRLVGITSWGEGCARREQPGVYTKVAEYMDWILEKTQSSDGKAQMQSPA
Chain of Coagulation factor X (P00743 41-180 limits assumed): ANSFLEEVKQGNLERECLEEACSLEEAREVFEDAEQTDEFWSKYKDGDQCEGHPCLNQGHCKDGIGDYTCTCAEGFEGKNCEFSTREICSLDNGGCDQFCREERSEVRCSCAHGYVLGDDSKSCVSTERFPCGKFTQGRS
Chain of Coagulation factor X (P00743 234-492 limits assumed): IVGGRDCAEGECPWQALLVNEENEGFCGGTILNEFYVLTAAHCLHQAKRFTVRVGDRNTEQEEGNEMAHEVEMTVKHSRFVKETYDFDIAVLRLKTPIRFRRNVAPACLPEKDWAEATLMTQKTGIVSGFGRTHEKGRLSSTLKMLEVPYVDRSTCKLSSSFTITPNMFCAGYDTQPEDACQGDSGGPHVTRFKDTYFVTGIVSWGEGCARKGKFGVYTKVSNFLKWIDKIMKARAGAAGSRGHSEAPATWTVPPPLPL

SMILES	pKi [1]	pKi (Plasminogen [2])	pKi (Serine protease 1 [3])	other results
COC(=O)C1CCCCN1C(=O)C(Cc1cccc(C(=N)N)c1)NS(=O)(=O)c1c(C(C)C)cc(C(C)C)cc1C(C)C (stereo not drawn)	4.48	6.00	5.85	–
CC(C)c1cc(C(C)C)c(S(=O)(=O)NC(Cc2cccc(C(=N)N)c2)C(=O)N2CCN(C)CC2)c(C(C)C)c1 (stereo not drawn)	4.28	4.68	5.52	–
CC(C)c1cc(C(C)C)c(S(=O)(=O)NC(Cc2cccc(C(=N)N)c2)C(=O)N2CCNCC2)c(C(C)C)c1 (stereo not drawn)	4.92	5.15	6.01	–
CC1CCN(C(=O)C(Cc2cccc(C(=N)N)c2)NS(=O)(=O)c2c(C(C)C)cc(C(C)C)cc2C(C)C)CC1 (stereo not drawn)	–	5.40	–	–
CC(C)c1cc(C(C)C)c(S(=O)(=O)NC(Cc2cccc(C(=N)N)c2)C(=O)N2CCCCC2C(=O)O)c(C(C)C)c1 (stereo not drawn)	5.89	5.82	6.30	–
CC(C)c1cc(C(C)C)c(S(=O)(=O)NC(Cc2cccc(C(=N)N)c2)C(=O)N2CCOCC2)c(C(C)C)c1 (stereo not drawn)	5.27	5.35	6.31	–
N=C(N)c1cccc(CC(NS(=O)(=O)c2ccc3ccccc3c2)C(=O)N2CCCC2)c1 (stereo not drawn)	–	4.92	–	pKi [4]: 4.14
CC(C)c1cc(C(C)C)c(S(=O)(=O)NC(Cc2cccc(C(=N)N)c2)C(=O)N2CCCC2)c(C(C)C)c1 (stereo not drawn)	4.72	5.02	5.41	–
CC(C)c1cc(C(C)C)c(S(=O)(=O)NC(Cc2cccc(C(=N)N)c2)C(=O)N2CCCCCC2)c(C(C)C)c1 (stereo not drawn)	5.36	5.55	6.02	–
N=C(N)c1cccc(CC(NS(=O)(=O)c2ccc3ccccc3c2)C(=O)N2CCOCC2)c1 (stereo not drawn)	4.24	5.11	–	–
N=C(N)c1cccc(CC(NS(=O)(=O)c2ccc3ccccc3c2)C(=O)N2CCCCCCC2)c1 (stereo not drawn)	4.72	5.11	–	–
N=C(N)c1cccc(CC(NS(=O)(=O)c2ccc3ccccc3c2)C(=O)N2CCCCCC2)c1 (stereo not drawn)	4.55	5.18	6.13	–
CCOC(=O)N1CCN(C(=O)[C@H](Cc2cccc(C(=N)N)c2)NS(=O)(=O)c2c(C(C)C)cc(C(C)C)cc2C(C)C)CC1	–	–	–	pKi (Coagulation factor X): 5.77; pKi [5]: 6.39; pKi (Plasma kallikrein): 5.14; pKi (Plasminogen [6]): 6.41; pKi [7]: 5.64; pKi (Prothrombin): 6.31; pKi (Serine protease 1 [8]): 7.43; pKi [9]: 5.31
COC(=O)C1CCCN(C(=O)C(Cc2cccc(C(=N)N)c2)NS(=O)(=O)c2c(C(C)C)cc(C(C)C)cc2C(C)C)C1 (stereo not drawn)	5.60	6.00	6.44	–
CNC(=O)C1CCN(C(=O)C(Cc2cccc(C(=N)N)c2)NS(=O)(=O)c2c(C(C)C)cc(C(C)C)cc2C(C)C)CC1 (stereo not drawn)	5.32	5.60	6.44	–
CCOC(=O)N1CCN(C(=O)C(Cc2cccc(C(=N)N)c2)NS(=O)(=O)c2c(C(C)C)cc(C(C)C)cc2C(C)C)CC1 (stereo not drawn)	6.02	5.92	6.92	–
CNC(=O)C1CCCN(C(=O)C(Cc2cccc(C(=N)N)c2)NS(=O)(=O)c2c(C(C)C)cc(C(C)C)cc2C(C)C)C1 (stereo not drawn)	4.92	6.40	–	–
CC(C)c1cc(C(C)C)c(S(=O)(=O)NC(Cc2cccc(C(=N)N)c2)C(=O)N2CCN(S(C)(=O)=O)CC2)c(C(C)C)c1 (stereo not drawn)	4.72	5.10	6.21	–
COC(=O)C1CCN(C(=O)C(Cc2cccc(C(=N)N)c2)NS(=O)(=O)c2c(C(C)C)cc(C(C)C)cc2C(C)C)CC1 (stereo not drawn)	5.89	5.85	–	–
CC(C)c1cc(C(C)C)c(S(=O)(=O)NC(Cc2cccc(C(=N)N)c2)C(=O)N2CCCC(C(=O)O)C2)c(C(C)C)c1 (stereo not drawn)	4.77	5.09	–	–
CC(C)c1cc(C(C)C)c(S(=O)(=O)NC(Cc2cccc(C(=N)N)c2)C(=O)N2CCCCCCC2)c(C(C)C)c1 (stereo not drawn)	5.11	5.49	6.08	–
CC(C)c1cc(C(C)C)c(S(=O)(=O)NC(Cc2cccc(C(=N)N)c2)C(=O)N2CCC(C(=O)O)CC2)c(C(C)C)c1 (stereo not drawn)	4.28	4.92	5.19	–
CC(C)c1cc(C(C)C)c(S(=O)(=O)NC(Cc2cccc(C(=N)N)c2)C(=O)N2CCCCC2)c(C(C)C)c1 (stereo not drawn)	5.29	5.59	5.89	–
COC(=O)N1CCN(C(=O)C(Cc2cccc(C(=N)N)c2)NS(=O)(=O)c2c(C(C)C)cc(C(C)C)cc2C(C)C)CC1 (stereo not drawn)	–	5.74	6.96	–
